In patent US9108984B2, “Substituted diamino-pyrimidine and diamino-pyridine derivatives as PI3K inhibitors” (Incyte Corporation, priority 2011, dated 2015):

How the values were obtained:
[1] = tested on: Pfeiffer cells (diffuse large B cell lymphoma); experiment: Pfeiffer cell proliferation assay; type: cell-based; details: Homo sapiens, [3H]-thymidine incorporation, 3-4 days
Method: Pfeiffer Cell Proliferation Assay
Pfeiffer cell line (diffuse large B cell lymphoma) was purchased from ATCC (Manassas, Va.) and maintained in the culture medium recommended (RPMI and 10% FBS). To measure the anti-proliferation activity of the compounds, the Pfeiffer cells were plated with the culture medium (2×10^3 cells/well/per 200 μl) into 96-well ultra-low binding plates (Corning, Corning, N.Y.), in the presence or absence of a concentration range of test compounds. After 3-4 days, [^3H]-thymidine (1 μCi/well) (PerkinElmer, Boston, Mass.) in PBS wass then added to the cell culture for an additional 12 hours before the incorporated radioactivity was separated by filtration with water through GF/B filters (Packard Bioscience, Meridenj, Conn.) and measured by liquid scintillation counting with a TopCount (Packard Bioscience).

PI3Kδ (p110δ/p85α) = PI3Kδ (p110δ/p85α) (Homo sapiens (Human), UniProt O00329); experiment: PI3Kδ scintillation proximity assay (enzyme assay); type: biochemical; details: PI3Kδ SPA, 20 μM ATP, 20 μM PIP2, 210 min
Source text: PI3Kδ Scintillation Proximity Assay
[γ-^33P]ATP (10 mCi/mL) was purchased from Perkin-Elmer (Waltham, Mass.). Lipid kinase substrate, D-myo-Phosphatidylinositol 4,5-bisphosphate (PtdIns(4,5)P2)D (+)-sn-1,2-di-O-octanoylglyceryl, 3-O-phospho linked (PIP2), CAS 204858-53-7, was purchased from Echelon Biosciences (Salt Lake City, Utah). PI3Kδ (p110δ/p85α) was purchased from Millipore (Bedford, Mass.). ATP, MgCl2, DTT, EDTA, MOPS and CHAPS were purchased from Sigma-Aldrich (St. Louis, Mo.). Wheat Germ Agglutinin (WGA) YSi SPA Scintillation Beads was purchased from GE healthcare life sciences (Piscataway, N.J.).
The kinase reaction was conducted in polystyrene 384-well matrix white plate from Thermo Fisher Scientific in a final volume of 25 μL. Inhibitors were first diluted serially in DMSO and added to the plate wells before the addition of other reaction components. The final concentration of DMSO in the assay was 0.5%. The PI3K assays were carried out at room temperature in 20 mM MOPS, pH 6.7, 10 mM MgCl2, 5 mM DTT and CHAPS 0.03%. Reactions were initiated by the addition of ATP, the final reaction mixture consisted of 20 μM PIP2, 20 μM ATP, 0.2 μCi [γ-^33P] ATP, 4 nM PI3Kδ. […] After the plate sealing, plates were shaken overnight at room temperature and centrifuged at 1800 rpm for 10 minutes, the radioactivity of the product was determined by scintillation counting on Topcount (Perkin-Elmer). […]

Sequence of PI3Kδ (p110δ/p85α) (O00329 whole entry): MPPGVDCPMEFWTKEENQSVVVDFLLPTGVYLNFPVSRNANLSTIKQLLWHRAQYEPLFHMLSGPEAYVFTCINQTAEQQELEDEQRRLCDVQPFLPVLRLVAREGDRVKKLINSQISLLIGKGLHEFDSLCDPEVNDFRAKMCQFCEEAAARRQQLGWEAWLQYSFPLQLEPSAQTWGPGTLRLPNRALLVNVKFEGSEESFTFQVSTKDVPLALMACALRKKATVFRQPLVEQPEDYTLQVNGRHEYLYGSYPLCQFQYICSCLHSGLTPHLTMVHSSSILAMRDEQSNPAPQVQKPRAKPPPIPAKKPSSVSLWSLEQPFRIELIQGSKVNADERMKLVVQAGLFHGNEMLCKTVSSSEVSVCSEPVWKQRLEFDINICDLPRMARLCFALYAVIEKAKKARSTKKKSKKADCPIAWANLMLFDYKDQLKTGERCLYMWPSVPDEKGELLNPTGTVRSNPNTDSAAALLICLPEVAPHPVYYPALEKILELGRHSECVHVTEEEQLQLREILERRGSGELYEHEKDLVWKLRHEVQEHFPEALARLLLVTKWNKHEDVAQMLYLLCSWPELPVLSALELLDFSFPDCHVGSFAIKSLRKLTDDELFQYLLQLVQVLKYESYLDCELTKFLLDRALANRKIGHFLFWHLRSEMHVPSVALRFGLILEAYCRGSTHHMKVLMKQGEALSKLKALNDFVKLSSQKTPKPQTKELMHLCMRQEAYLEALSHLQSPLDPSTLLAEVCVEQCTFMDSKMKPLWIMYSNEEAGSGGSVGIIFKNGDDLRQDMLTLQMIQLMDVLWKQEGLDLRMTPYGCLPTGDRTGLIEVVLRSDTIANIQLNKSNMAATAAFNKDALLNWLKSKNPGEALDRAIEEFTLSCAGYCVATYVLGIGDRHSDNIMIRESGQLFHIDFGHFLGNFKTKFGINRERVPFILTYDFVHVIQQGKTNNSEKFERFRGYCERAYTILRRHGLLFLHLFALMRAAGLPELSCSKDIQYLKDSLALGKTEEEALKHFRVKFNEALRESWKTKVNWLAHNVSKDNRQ
Sequence of PI3Kδ (p110δ/p85α) (P27986 whole entry partner): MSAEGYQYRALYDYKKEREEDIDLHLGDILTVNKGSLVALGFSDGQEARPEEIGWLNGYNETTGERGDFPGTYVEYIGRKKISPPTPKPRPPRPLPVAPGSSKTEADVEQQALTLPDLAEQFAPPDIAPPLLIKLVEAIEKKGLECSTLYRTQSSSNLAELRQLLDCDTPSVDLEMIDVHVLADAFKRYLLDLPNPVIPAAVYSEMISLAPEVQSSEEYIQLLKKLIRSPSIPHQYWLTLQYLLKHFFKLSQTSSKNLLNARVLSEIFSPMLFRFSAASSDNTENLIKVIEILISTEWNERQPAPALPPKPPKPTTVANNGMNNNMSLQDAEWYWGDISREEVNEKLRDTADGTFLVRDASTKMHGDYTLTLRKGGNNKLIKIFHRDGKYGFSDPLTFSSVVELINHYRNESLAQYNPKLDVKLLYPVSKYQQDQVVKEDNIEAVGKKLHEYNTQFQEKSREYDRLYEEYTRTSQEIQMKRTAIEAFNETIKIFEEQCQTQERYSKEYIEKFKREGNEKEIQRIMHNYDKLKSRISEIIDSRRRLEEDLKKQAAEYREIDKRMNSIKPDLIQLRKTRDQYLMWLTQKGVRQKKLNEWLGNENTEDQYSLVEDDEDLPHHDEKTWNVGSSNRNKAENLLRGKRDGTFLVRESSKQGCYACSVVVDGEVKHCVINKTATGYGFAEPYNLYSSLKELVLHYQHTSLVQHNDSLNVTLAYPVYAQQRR

| Structure (SMILES) | IC50 [1] [nM] | IC50 (PI3Kδ (p110δ/p85α)) [nM] |
| --- | --- | --- |
| Cc1csc2nc([C@H](C)Nc3ncnc(N)c3C#N)c(-c3cccc(F)c3)c(=O)n12 [Example 2, 4-amino-6-({(1S)-1-[6-(3-fluorophenyl)-3-methyl-5-oxo-5H-[1,3]thiazolo[3,2-a]pyrimidin-7-yl]ethyl}amino)pyrimidine-5-carbonitrile] | < 20 | < 20 |
| CC(Nc1ncnc(N)c1C#N)c1cc(Cl)c2ccnnc2c1-c1cccc(F)c1 (single isomer, unassigned) [Example 1, 4-Amino-6-({1-[5-chloro-8-(3-fluorophenyl)cinnolin-7-yl]ethyl}amino)-pyrimidine-5-carbonitrile] | < 20 | < 20 |
